Results reported in patent US20260035382A1, “COMPOUNDS AS SUMO ACTIVATING ENZYME INHIBITORS” (WIGEN BIOMEDICINE TECHNOLOGY (SHANGHAI) CO., LTD., priority 2022, published 2026).
Like-named read-outs stand apart in the source and are kept apart here.

Tests used:
[1] = molecular target: SAE (Homo sapiens (Human), UniProt Q9UBT2); assay: In vitro inhibitory activity assay against SAE (SUMO-2/3 immunofluorescence in HCT116 cells); assay type: cell-based; details: 6 h incubation, numeric values, read-out: SUMO IF IC50
How it was run: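 HCT116 cells treated with compounds for 6 h at 37 °C, then fixed, permeabilized and immunostained for SUMO-2/3 with FITC secondary detection. Fluorescence compared with DMSO control to give inhibition rate and IC50.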

[2] = In vivo pharmacokinetic experiment, intravenous administration; details: CD-1 female mice, 2 mpk; for Plasma AUClast: plasma (Table 5); for C0 / clearance / half-life / AUC(0-t) / Cmax / Vd: mouse, 2 mg/kg; for Vd: read-out: Vdss
Protocol: CD-1 female mice aged 6 to 8 weeks were intravenously administered at a dose of 2 mg/kg. The mice were fasted for at least 12 h before the administration and given food after the administration, and they were given ad libitum access to water during the experiment. On the day of the experiment, animals in the intravenous group were administered the corresponding compound by single injection via the tail vein at an administration volume of 0.2 mL/animal. The sample collection time was 0.083 h, 0.167 h, 0.5 h, 1 h, 2 h, 4 h, 8 h, and 24 h. About 150 μL of whole blood was collected through the submaxillary venous plexus at each time point (30 μL of whole blood was diluted with ultrapure water at a ratio of 1:3, and 120 μL of whole blood was centrifuged to obtain plasma) and used for concentration determination by high-performance liquid chromatography-tandem mass spectrometry (LC-MS/MS). All animals were sacrificed after the PK samples were collected at the last time point. The plasma concentration was processed using a non-compartmental model of Phoenix WinNonlin™ version 8.3 (Certara) pharmacokinetic software, and the pharmacokinetic parameters were calculated using a linear-log trapezoidal method.

[3] = whole blood, read-out: Whole blood AUClast
[4] = whole blood, read-out: Whole blood Cmax

Chain of SAE (Q9UBT2 whole entry): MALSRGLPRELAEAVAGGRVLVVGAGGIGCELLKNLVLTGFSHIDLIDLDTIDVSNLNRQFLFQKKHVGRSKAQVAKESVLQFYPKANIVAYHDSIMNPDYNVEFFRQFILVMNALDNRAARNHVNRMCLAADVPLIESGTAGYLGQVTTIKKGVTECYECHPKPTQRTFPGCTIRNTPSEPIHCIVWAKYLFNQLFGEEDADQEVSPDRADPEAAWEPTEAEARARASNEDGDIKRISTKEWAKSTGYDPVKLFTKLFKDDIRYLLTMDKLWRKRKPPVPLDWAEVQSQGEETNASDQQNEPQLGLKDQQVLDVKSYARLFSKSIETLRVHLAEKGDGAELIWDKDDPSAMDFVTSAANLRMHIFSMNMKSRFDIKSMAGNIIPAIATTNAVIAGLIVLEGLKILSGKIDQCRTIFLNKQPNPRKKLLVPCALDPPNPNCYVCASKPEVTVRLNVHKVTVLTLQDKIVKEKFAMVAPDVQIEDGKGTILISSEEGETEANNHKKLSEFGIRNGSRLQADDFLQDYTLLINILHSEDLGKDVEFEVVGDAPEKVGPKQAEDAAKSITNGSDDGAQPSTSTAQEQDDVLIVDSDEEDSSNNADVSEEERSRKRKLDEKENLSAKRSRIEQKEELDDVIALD
Chain of SAE (Q9UBE0 whole entry partner): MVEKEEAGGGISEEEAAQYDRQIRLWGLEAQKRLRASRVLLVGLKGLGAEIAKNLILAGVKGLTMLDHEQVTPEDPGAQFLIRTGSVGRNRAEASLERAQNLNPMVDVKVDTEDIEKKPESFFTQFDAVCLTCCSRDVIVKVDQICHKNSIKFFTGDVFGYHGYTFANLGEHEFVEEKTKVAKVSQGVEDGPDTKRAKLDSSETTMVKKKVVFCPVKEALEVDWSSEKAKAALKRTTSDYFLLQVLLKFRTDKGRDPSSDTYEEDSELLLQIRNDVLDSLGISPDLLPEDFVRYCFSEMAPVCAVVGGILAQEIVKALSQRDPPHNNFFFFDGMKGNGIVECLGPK

Structure (SMILES) | IC50 [1] | Whole blood AUClast/plasma AUClast ratio [2] | Whole blood Cmax/plasma Cmax ratio [2] | Plasma AUClast [2] | C0 ([2]; plasma) | clearance ([2]; plasma) | half-life ([2]; plasma) | AUC(0-t) ([2]; plasma, read-out: AUClast) | Cmax ([2]; plasma, read-out: Cmax) | Vd ([2]; plasma) | AUC(0-t) [2, 3] | Cmax [2, 4]
NS(=O)(=O)OC[C@H]1C[C@@H](Nc2ncncc2C(=O)c2cc3c(s2)COC[C@]32NCCc3ccc(Cl)cc32)C[C@@H]1O [Compound 21] | 87.5 nM | 45.9 | 17.5 | 1479 ng·h/mL | 1610 ng/mL | 21.1 mL/min/kg | 2.17 h | 1480 ng·h/mL | 1150 ng/mL | 3.03 L/kg | 67900 ng·h/mL | 20200 ng/mL
NS(=O)(=O)OC[C@H]1C[C@@H](Nc2ncncc2C(=O)c2cc3c(s2)CC[C@]32NCCc3ccc(Cl)cc32)C[C@@H]1O [Compound 48] | 41 nM | – | – | – | 839 ng/mL | 44 mL/min/kg | 1.32 h | 749 ng·h/mL | 719 ng/mL | 3.43 L/kg | – | –
NS(=O)(=O)OC[C@H]1C[C@@H](Nc2ncncc2C(=O)c2cc3c(s2)CCC[C@]32NCCc3ccc(F)cc32)C[C@@H]1O [Compound 9] | 36 nM | 32.7 | 23.9 | 580 ng·h/mL | 730 ng/mL | 56.9 mL/min/kg | 1.31 h | 580 ng·h/mL | 597 ng/mL | 3.91 L/kg | 19000 ng·h/mL | 14300 ng/mL
NS(=O)(=O)OC[C@H]1C[C@@H](Nc2ncncc2C(=O)c2cc3c(s2)CCC[C@]32NCCc3ccc(Cl)cc32)C[C@@H]1O [Compound 6] | 27.8 nM | 39.0 | 19.7 | 881 ng·h/mL | 1080 ng/mL | 36.9 mL/min/kg | 1.45 h | 881 ng·h/mL | 798 ng/mL | 3.5 L/kg | 34400 ng·h/mL | 15800 ng/mL
